{"source": "patent US20090291887A1", "about": "“Proteins of the SDF-1-Family for the Manufacturing of a Medicament” (priority 2006, published 2009)", "key": {"[1]": {"test_system": "DRG neurons", "experiment": "Myelin-inhibition assay (neurite growth of DRG neurons on laminin/myelin)", "assay_type": "cell-based, rat", "experimental": "Spinal neurons from the dorsal root ganglia (DRG) of young rats (day 6 postnatal) were plated in parallel on culture substrates coated with either poly-D-lysine (PDL)/laminin (13 μg/ml) or PDL/laminin (13 μg/ml)+myelin (200 ng/culture). The myelin preparation has been obtained from rat brain by biochemical fractionation and employed as a suspension for coating the culture dishes.\nThe images shown in FIGS. 1-3 were recorded by immunofluorescence microscopy with PAM (panaxonal marker/neurofilament) antibody, and the visualization was effected by fluorescent dye (Alexa)."}, "[2]": {"test_system": "Ser-133 phosphorylated CREB in DRG neurons", "experiment": "PhosphoCREB assay", "assay_type": "cell-based, rat", "details": "P6 DRG neurons; 200 ng/ml; versus untreated cultures (FIG. 5)", "experimental": "Determination of Ser-133 phosphorylated CREB was performed on glass coverslips coated with PDL (1 mg/ml, Sigma) and laminin (13 μg/ml, Sigma). Dissociated DRGs were plated at a density of 5×10^4 cells/cm2 and incubated in DMEM containing 10% fetal bovine serum, nerve growth factor-2.5S, penicilline/streptomycine, and 5′-fluoro-2′-desoxyuridine for 24 h. Cells were stimulated by application of either 200 ng/ml SDF-1a/CXCL12 or 6 μM forskolin (Sigma), respectively, for 1-120 min. Samples were fixed with […] and stained for phophoCREB. Nuclei of P6 DRG neurons were stained with DAPI. For quantitative analysis of phosphoCREB-immunoreactivity, 30 pictures per coverslip were taken randomly at 20× magnification, and the number of neurons displaying phosphoCREB-positive nuclei as well as the total number of neurons were determined."}, "[3]": {"test_system": "CST-lesioned adult rats", "experiment": "Rat model of spinal cord transection, CST axon sprouting (BDA tracing)", "assay_type": "in vivo", "protocol": "The dura was opened at the thoracic level, and the vertebrae Th8 and Th9 were removed. The dorsal CST, dorsal columns and central canal were transected using a Scouten wire knife (Bilaney, Germany). Following the surgery, a silicon tube catheter was placed in the subdural space at 1 mm caudal to the lesion, and was connected to a mini-osmotic pump (Alzet) containing 200 μl of either SDF-1a/CXCL12 (10 μM in PBS) or Tris buffer. After the pump was fixed in place, the dura and overlying tissue were sutured, and the animals were allowed to recover. Application of either SDF-1a/CXCL12 or Tris buffer was carried out at a flow rate of 1 μl/h over a time period of 7 days. One week after lesion, the pump was removed in a second surgery.\nA total volume of 2.3 μl biotinylated dextrane amine, BDA, (10%, Molecular Probes) was stereotactically injected into both hemispheres of the sensorimotor cortex. […] Briefly, animals were transcardially perfused with 40% PFA. The spinal cord was removed, postfixed in 4% PFA, and cryoprotected in sucrose (30%, Sigma) for 3-5 days. Spinal cord samples were shock frozen in methyl butane and cut into 20 μm thick sagittal cryostat slices. Sections were collected onto Histobond coated glass slides (Menzel, Germany). […] Briefly, sections were washed in PBS followed by incubation with avidin-Oregon (1:1000, in PBS) at 4° C. over night. […]"}}}
{"substance": "SDF-1α", "values": [{"measurement": "myelin-associated inhibition of neurite growth", "setting": "[1]; DRG neurons on PDL/laminin + myelin, SDF-1 Alpha 200 ng/ml (FIG. 3)", "value": "essentially neutralized"}, {"measurement": "neutralization of myelin inhibition, quantitative evaluation", "setting": "[1]; FIG. 4, dose dependence", "value": "dose-dependent neutralization"}, {"measurement": "myelin-induced inhibition of the neurite growth of DRG neurons in vitro", "setting": "[1]; concentration of 500 ng of SDF-1/ml", "value": "neutralized completely"}, {"measurement": "proportion of nuclei displaying phosphoCREB-immunoreactivity", "setting": "[2]", "value": "significantly increased"}, {"measurement": "animals that displayed extensive sprouting", "setting": "[3]; SDF-1a infusion, none out of three Tris buffer-infused rats", "value": "Two out of three"}, {"measurement": "sprouting of BDA-labelled CST axons within the proximal stump", "setting": "[3]; subdural infusion by mini-osmotic pump, 10 μM, 1 μl/h, 7 days, versus Tris buffer (FIG. 6)", "value": "enhanced sprouting"}]}
